Source: publication PMC10165273, “Itch receptor MRGPRX4 interacts with the receptor activity–modifying proteins” (The Journal of Biological Chemistry, 2023)
Several values for one entry are separate records, joined by “and”; a condition that tells them apart may be missing. Equal entries are not always repeated. Where two headings read alike, the source gives them in different places.

Biological target: T1, MRGPRX4 (Homo sapiens, UniProt Q96LA9)
T1 construct: expressed in transfected cells; host or cells: HEK293T
Experiment: IP1 accumulation HTRF assay, MRGPRX4
Format: cell-based
Set-up: key to IP1 Basal / IP1 accumulation with YM (Figure 1c) / response to agonist, MRGPRX4 / IP1 accumulation: % IP1: unstimulated mock-transfected = 0%, fully stimulated MRGPRX4 = 100%

T1 sequence (Q96LA9 whole entry): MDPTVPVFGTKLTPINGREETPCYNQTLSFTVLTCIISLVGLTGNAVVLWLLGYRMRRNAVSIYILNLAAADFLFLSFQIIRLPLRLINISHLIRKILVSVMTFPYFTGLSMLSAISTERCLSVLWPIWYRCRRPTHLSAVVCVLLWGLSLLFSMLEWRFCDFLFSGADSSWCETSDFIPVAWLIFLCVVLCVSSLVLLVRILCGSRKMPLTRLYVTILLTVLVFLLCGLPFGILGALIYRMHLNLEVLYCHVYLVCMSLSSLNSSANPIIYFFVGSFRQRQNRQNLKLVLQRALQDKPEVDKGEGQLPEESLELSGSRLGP

CC(C)[C@H]1CC[C@H](C(=O)N[C@H](Cc2ccccc2)C(=O)O)CC1 [Nateglinide]
EC50 (MRGPRX4 0.25 pg DNA/cell, individual experiments, read-out: potency (Figure 1b top) (converted)): 13.5 µM (2×) and 12.5 µM
Emax (MRGPRX4 0.5 pg DNA/cell, individual experiments, read-out: efficacy (Figure 1b bottom)): 95.7%
EC50 (MRGPRX4 0.5 pg DNA/cell, individual experiments, read-out: potency (Figure 1b top) (converted)): 12.3 µM and 9.23 µM
Emax (MRGPRX4 1 pg DNA/cell, individual experiments, read-out: efficacy (Figure 1b bottom)): 104%
EC50 (MRGPRX4 1 pg DNA/cell, individual experiments, read-out: potency (Figure 1b top) (converted)): 10.9 µM and 9.68 µM and 8.2 µM
Emax (MRGPRX4 2 pg DNA/cell, individual experiments, read-out: efficacy (Figure 1b bottom)): 97.2%
EC50 (MRGPRX4 2 pg DNA/cell, individual experiments, read-out: potency (Figure 1b top) (converted)): 6.87 µM and 6.27 µM and 6.64 µM
IP1 Basal (MRGPRX4 (Fig. 1A), HEK293T, normalized to 100 μM nateglinide): 14.95
EC50 (MRGPRX4 (Fig. 1A), HEK293T, normalized to 100 μM nateglinide, read-out: IP1 EC50): 10.7 µM
EC50 (MRGPRX4, HEK293T (Fig. 1A), read-out: EC50 concentration, IP1 accumulation): 10.6 µM
IP1 accumulation (MRGPRX4: 2pg/cell, log [Nateglinide] (M) -4, Fig S1b/c): 100
IP1 accumulation (MRGPRX4: 2pg/cell, log [Nateglinide] (M) -4.69897, Fig S1b/c): 88.6878 and 83.9734
IP1 accumulation (MRGPRX4: 2pg/cell, log [Nateglinide] (M) -5.39794, Fig S1b/c): 45.9251 and 47.3838
IP1 accumulation (MRGPRX4: 2pg/cell, log [Nateglinide] (M) -6.09691, Fig S1b/c): 18.7171 and 20.7267
IP1 accumulation (MRGPRX4: 2pg/cell, log [Nateglinide] (M) -6.79588, Fig S1b/c): 11.3987 and 15.6075
IP1 accumulation (MRGPRX4: 2pg/cell, log [Nateglinide] (M) -7.49485, Fig S1b/c): 10.9025 and 14.1936
IP1 Basal (MRGPRX4 DNA 0.25 pg/cell (Fig. S1)): 4.926
EC50 (MRGPRX4 DNA 0.25 pg/cell (Fig. S1), read-out: IP1 EC50): 13.6 µM
Emax (MRGPRX4 DNA 0.25 pg/cell (Fig. S1), read-out: IP1 Emax): 84.4%
Emax (MRGPRX4 DNA 0.25 pg/cell (Fig. S1), read-out: IP1 span): 79.5%
IP1 Basal (MRGPRX4 DNA 0.5 pg/cell (Fig. S1)): 6.421
EC50 (MRGPRX4 DNA 0.5 pg/cell (Fig. S1), read-out: IP1 EC50): 11 µM
Emax (MRGPRX4 DNA 0.5 pg/cell (Fig. S1), read-out: IP1 Emax): 97.5%
Emax (MRGPRX4 DNA 0.5 pg/cell (Fig. S1), read-out: IP1 span): 91%
IP1 Basal (MRGPRX4 DNA 1 pg/cell (Fig. S1)): 9.219
EC50 (MRGPRX4 DNA 1 pg/cell (Fig. S1), read-out: IP1 EC50): 9.79 µM
Emax (MRGPRX4 DNA 1 pg/cell (Fig. S1), read-out: IP1 Emax): 106%
Emax (MRGPRX4 DNA 1 pg/cell (Fig. S1), read-out: IP1 span): 96.7%
IP1 Basal (MRGPRX4 DNA 2 pg/cell (Fig. S1)): 11.77
EC50 (MRGPRX4 DNA 2 pg/cell (Fig. S1), read-out: IP1 EC50): 6.8 µM
Emax (MRGPRX4 DNA 2 pg/cell (Fig. S1), read-out: IP1 Emax): 108%
Emax (MRGPRX4 DNA 2 pg/cell (Fig. S1), read-out: IP1 span): 96.3%
EC50 (MRGPRX4 DNA […] (Fig. S1), read-out: IP1 EC50): 13.9 µM
Emax (MRGPRX4 DNA […] (Fig. S1), read-out: IP1 Emax): 74.8%
Emax (MRGPRX4 DNA […] (Fig. S1), read-out: IP1 span): 72.2%
IP1 accumulation (MRGPRX4 alone, log [Nateglinide] (M) -4.69897, Fig S3a-c): 73.8798 and 88.0796
IP1 accumulation (MRGPRX4 alone, log [Nateglinide] (M) -5.39794, Fig S3a-c): 42.3002 and 52.0108
IP1 accumulation (MRGPRX4 alone, log [Nateglinide] (M) -6.09691, Fig S3a-c): 21.697 and 30.974
IP1 accumulation (MRGPRX4 alone, log [Nateglinide] (M) -6.79588, Fig S3a-c): 15.7135 and 25.7363
IP1 accumulation (MRGPRX4 alone, log [Nateglinide] (M) -7.49485, Fig S3a-c): 14.3426 and 24.4649
normalized IP1 accumulation (SP-FLAG-Nluc-HT7-MRGX4_Tet-GFP10-1D4, log [agonist] (M) -4.09691): 53.7873 and 50.7716
normalized IP1 accumulation (SP-FLAG-Nluc-HT7-MRGX4_Tet-GFP10-1D4, log [agonist] (M) -4.79588): 39.105 and 47.513
normalized IP1 accumulation (SP-FLAG-Nluc-HT7-MRGX4_Tet-GFP10-1D4, log [agonist] (M) -5.49485): 24.2093 and 23.5323
normalized IP1 accumulation (SP-FLAG-Nluc-HT7-MRGX4_Tet-GFP10-1D4, log [agonist] (M) -6.19382): 9.755 and 12.1626
normalized IP1 accumulation (SP-FLAG-Nluc-HT7-MRGX4_Tet-GFP10-1D4, log [agonist] (M) -6.89279): 9.31 and 10.6126
normalized IP1 accumulation (SP-FLAG-Nluc-HT7-MRGX4_Tet-GFP10-1D4, log [agonist] (M) -7.59176): 10.0922 and 8.039
normalized IP1 accumulation (SP-FLAG-Nluc-HT7-MRGX4_Tet-GFP10-1D4 no dox, log [agonist] (M) -4.79588): 9.836 and 10.4491
normalized IP1 accumulation (SP-FLAG-Nluc-HT7-MRGX4_Tet-GFP10-1D4 no dox, log [agonist] (M) -5.49485): 7.573 and 7.949
normalized IP1 accumulation (SP-FLAG-Nluc-HT7-MRGX4_Tet-GFP10-1D4 no dox, log [agonist] (M) -6.19382): 7.652 and 7.516
normalized IP1 accumulation (SP-FLAG-Nluc-HT7-MRGX4_Tet-GFP10-1D4 no dox, log [agonist] (M) -6.89279): 8.115 and 7.953
normalized IP1 accumulation (SP-FLAG-Nluc-HT7-MRGX4_Tet-GFP10-1D4 no dox, log [agonist] (M) -7.59176): 8.427 and 8.747
normalized IP1 accumulation (SP-Flag-MRGX4-1D4, log [agonist] (M) -4): 90.7901 and 99.3577
normalized IP1 accumulation (SP-Flag-MRGX4-1D4, log [agonist] (M) -4.69897): 68.6541 and 83.0667
normalized IP1 accumulation (SP-Flag-MRGX4-1D4, log [agonist] (M) -5.39794): 34.48 and 31.1467
normalized IP1 accumulation (SP-Flag-MRGX4-1D4, log [agonist] (M) -6.09691): 13.1213 and 14.7496
normalized IP1 accumulation (SP-Flag-MRGX4-1D4, log [agonist] (M) -6.79588): 9.479 and 9.146
normalized IP1 accumulation (SP-Flag-MRGX4-1D4, log [agonist] (M) -7.49485): 7.648 and 7.711
normalized IP1 accumulation (SP-Flag-MRGX4-GFP10-1D4, log [agonist] (M) -4.69897): 81.9562 and 74.6812
normalized IP1 accumulation (SP-Flag-MRGX4-GFP10-1D4, log [agonist] (M) -5.39794): 38.7817 and 35.4094
normalized IP1 accumulation (SP-Flag-MRGX4-GFP10-1D4, log [agonist] (M) -6.09691): 15.3576 and 16.0977
normalized IP1 accumulation (SP-Flag-MRGX4-GFP10-1D4, log [agonist] (M) -6.79588): 8.66 and 9.498
normalized IP1 accumulation (SP-Flag-MRGX4-GFP10-1D4, log [agonist] (M) -7.49485): 9.929 and 8.168
IP1 Basal (Tet-On MRGPRX4 1pg/cell, Dox 13 ng/mL (Fig. S5B)): -3.433
EC50 (Tet-On MRGPRX4 1pg/cell, Dox 13 ng/mL (Fig. S5B), read-out: IP1 EC50): 19.2 µM
Emax (Tet-On MRGPRX4 1pg/cell, Dox 13 ng/mL (Fig. S5B), read-out: IP1 Emax): 17.4%
Emax (Tet-On MRGPRX4 1pg/cell, Dox 13 ng/mL (Fig. S5B), read-out: IP1 span): 20.8%
IP1 Basal (Tet-On MRGPRX4 1pg/cell, Dox 40 ng/mL (Fig. S5B)): -3.380
EC50 (Tet-On MRGPRX4 1pg/cell, Dox 40 ng/mL (Fig. S5B), read-out: IP1 EC50): 13.7 µM
Emax (Tet-On MRGPRX4 1pg/cell, Dox 40 ng/mL (Fig. S5B), read-out: IP1 Emax): 18.8%
Emax (Tet-On MRGPRX4 1pg/cell, Dox 40 ng/mL (Fig. S5B), read-out: IP1 span): 22.1%
IP1 Basal (Tet-On MRGPRX4 1pg/cell, Dox 1100 ng/mL (Fig. S5B)): -3.039
EC50 (Tet-On MRGPRX4 1pg/cell, Dox 1100 ng/mL (Fig. S5B), read-out: IP1 EC50): 10.8 µM
Emax (Tet-On MRGPRX4 1pg/cell, Dox 1100 ng/mL (Fig. S5B), read-out: IP1 Emax): 30.6%
Emax (Tet-On MRGPRX4 1pg/cell, Dox 1100 ng/mL (Fig. S5B), read-out: IP1 span): 33.7%
IP1 Basal (Tet-On MRGPRX4 1pg/cell, Dox 3300 ng/mL (Fig. S5B)): -1.008
